Measurements as given in publication PMC11683478, “Bioprospecting of culturable marine biofilm bacteria for novel antimicrobial peptides” (iMeta, 2024).
Where no end group is shown, it is not given here.

Assays:
[1] = test system: Acinetobacter baumannii ATCC 19606; assay: Antibacterial screen at 200 μg/mL (cell density vs control); assay type: cell-based; details: peptide 200 μg/mL, CAMHB, 5 × 10^5 CFU/mL, 37°C, 12 h, OD600; control (no AMP) = 1; three biological replicates
Procedure: (§1) Eight bacterial strains were utilized in the antibacterial experiment. S. aureus ATCC 12600, B. subtilis ATCC 23857, E. coli ATCC 11775, and A. baumannii ATCC 19606 were purchased from Shanghai Beinuo Biology. M. luteus ATCC 4698 and S. bongori ATCC43975 were purchased from Shanghai Beisi Biotechnology. V. owensii ems001 and V. alginolyticus xv22 from the intestines of diseased shrimps were isolated in our laboratory. All strains were cultured in the cation‐adjusted Mueller‐Hinton broth (CAMHB) at 37°C to the logarithmic growth phase (OD600 = 0.5). Then, bacteria were gradient‐diluted using fresh CAMHB to a bacterial density of 5 × 10^5 CFU/mL. Antibacterial experiments were performed in a 96‐well plate with 200 μg/mL final peptide concentration. Four experimental groups were set up, including a blank control (200 μL CAMHB), a negative control (180 μL CAMHB plus 20 μL peptide), a positive control (180 μL bacterial culture plus 20 μL ultrapure water), and an experimental group (180 μL bacterial culture plus 20 μL peptide). Three biological replicates were conducted for each group, and OD600 values were measured after incubation at 37°C for 12 h. Every observed value was removed from the blank control group value. The value of the experimental group was then subtracted from the value of the negative control group therefore eradicating the effect of the peptide on the OD measurement. Student's t‐test allowed the estimation of a notable variation between the experimental and positive groups using a p‐value of 0.05 as the limit. […] The MIC of a peptide against a bacterium was determined as the minimum peptide concentration at which there was no visible bacterial growth.

[2] = test system: Bacillus subtilis ATCC 23857; assay: as above; assay type: cell-based; details: peptide 200 μg/mL, CAMHB, 5 × 10^5 CFU/mL, 37°C, 12 h, OD600; control (no AMP) = 1; three biological replicates
Procedure: as §1

[3] = test system: Escherichia coli ATCC 11775; assay: as above; assay type: cell-based; details: peptide 200 μg/mL, CAMHB, 5 × 10^5 CFU/mL, 37°C, 12 h, OD600; control (no AMP) = 1; three biological replicates
Procedure: as §1

[4] = test system: Micrococcus luteus ATCC 4698; assay: as above; assay type: cell-based; details: peptide 200 μg/mL, CAMHB, 5 × 10^5 CFU/mL, 37°C, 12 h, OD600; control (no AMP) = 1; three biological replicates
Procedure: as §1

[5] = test system: Salmonella bongori ATCC 43975; assay: as above; assay type: cell-based; details: peptide 200 μg/mL, CAMHB, 5 × 10^5 CFU/mL, 37°C, 12 h, OD600; control (no AMP) = 1; three biological replicates
Procedure: as §1

[6] = test system: Staphylococcus aureus ATCC 12600; assay: as above; assay type: cell-based; details: peptide 200 μg/mL, CAMHB, 5 × 10^5 CFU/mL, 37°C, 12 h, OD600; control (no AMP) = 1; three biological replicates
Procedure: as §1

[7] = test system: Vibrio alginolyticus xv22; assay: as above; assay type: cell-based; details: peptide 200 μg/mL, CAMHB, 5 × 10^5 CFU/mL, 37°C, 12 h, OD600; control (no AMP) = 1; three biological replicates
Procedure: as §1

Vibrio owensii ems001 = assay: as above; assay type: cell-based; details: peptide 200 μg/mL, CAMHB, 5 × 10^5 CFU/mL, 37°C, 12 h, OD600; control (no AMP) = 1; three biological replicates
Procedure: as §1

sheep red blood cells = details: red cells of sheep, 1 h
Procedure: Freshly collected sheep blood was centrifuged at 3000 rpm for 10 min, and the supernatant was removed. The pellet was washed and resuspended with normal saline water to produce a 2% blood cell solution. Then, 400 μL of peptide solution was added to 100 μL of 2% blood cell solution to achieve final peptide concentrations of 8, 16, 32, 64, and 128 μg/mL. Normal saline water and Triton X‐100 normal saline solution (2%) were used as negative and positive controls, respectively. The samples were incubated in a water bath at 37°C for 1 h, followed by centrifugation at 3000 rpm for 10 min. Then, 200 μL of the supernatant was transferred to a 96‐well plate, and OD values were measured at a wavelength of 545 nm. The hemolysis rate of each sample was calculated using the following formula: Hemolysis ratio=OD545(experimental)−OD545(negative control)/OD545(positive control)−OD545(negative control)×100%.

Sequence | cell density relative to control, A. baumannii ATCC 19606 [1] | cell density relative to control, B. subtilis ATCC 23857 [2] | cell density relative to control, E. coli ATCC 11775 [3] | cell density relative to control, M. luteus ATCC 4698 [4] | cell density relative to control, S. bongori ATCC 43975 [5] | cell density relative to control, S. aureus ATCC 12600 [6] | cell density relative to control, V. alginolyticus xv22 [7] | cell density relative to control, V. owensii ems001 (Vibrio owensii ems001) | Hemolysis ratio (%) at 8μg/mL (sheep red blood cells) [%] | Hemolysis ratio (%) at 16μg/mL (sheep red blood cells) [%] | Hemolysis ratio (%) at 32μg/mL (sheep red blood cells) [%] | Hemolysis ratio (%) at 64μg/mL (sheep red blood cells) [%] | Hemolysis ratio (%) at 128μg/mL (sheep red blood cells) [%]
MGPHWRGPRWGRVGCWNL [Cand-154, chemically synthesized candidate AMP predicted from marine biofilm bacteria] | 1 | 0 | 0.622 | 0.814 | 0.544 | 0.038 | 0.077 | 0.004 |  |  |  |  | 
MWKLPKWRNGRRRGFKIPRW [Cand-109, chemically synthesized candidate AMP predicted from marine biofilm bacteria] | 0.01 | 0.012 | 0.002 | 0.02 | 0.019 | 0 | 0.019 | 0.039 |  |  |  |  | 
MCALKWFCKSLIRALNKAT [Cand-68, chemically synthesized candidate AMP predicted from marine biofilm bacteria] | 0 | 0 | 0 | 0.001 | 0.024 | 0 | 0.012 | 0 |  |  |  |  | 
MSKIKAKIGHLR [Cand-98, chemically synthesized candidate AMP predicted from marine biofilm bacteria] | 0.74 | 1 | 0.765 | 1 | 1 | 0.721 | 1 | 1 |  |  |  |  | 
MGAVCRMGSLPCLIPRGAIRLG [Cand-198, chemically synthesized candidate AMP predicted from marine biofilm bacteria] | 0.765 | 1 | 0.844 | 1 | 0.827 | 0.817 | 0.891 | 0.904 |  |  |  |  | 
MGTYPKVGNSHWKR [Cand-69, chemically synthesized candidate AMP predicted from marine biofilm bacteria] | 0.889 | 1 | 1 | 1 | 0.886 | 0.819 | 1 | 1 |  |  |  |  | 
MLTWLKKLQPYLISMMR [Cand-44] |  |  |  |  |  |  |  |  | 3.540 | 1.775 | 3.660 | 5.713 | 19.067
MWIRLTKRLRKSRSNR [Cand-214] |  |  |  |  |  |  |  |  | 1.812 | 2.604 | 3.258 | 3.738 | 
MSPIRAWRRLRSC [Cand-144] |  |  |  |  |  |  |  |  | 1.328 | 1.615 | 1.536 | 3.230 | 10.013
MWPLSKLWPSCFRKTT [Cand-5] |  |  |  |  |  |  |  |  | 2.350 | 1.575 | 0.874 | 7.118 | 
